Here are results for 2 molecules from ChEMBL document CHEMBL3886637, “Pyridine-2-amides useful as CB2 agonists” (2016).

In one test the target is Cannabinoid receptor 2 (Homo sapiens, UniProt P34972). Nature of the test: (§1) cAMP Assay: CHO cells expressing human CB1 or CB2 receptors are seeded 17-24 hours prior to the experiment 50.000 cells per well in a black 96 well plate with flat clear bottom (Corning Costar #3904) in DMEM (Invitrogen No. 31331), 1×HT supplement, with 10% fetal calf serum and incubated at 5% CO2 and 37 °C. in a humidified incubator. The growth medium was exchanged with Krebs Ringer Bicarbonate buffer with 1 mM IBMX and incubated at 30 °C. for 30 min. Compounds were added to a final assay volume of 100 μl and incubated for 30 min at 30 °C. Using the cAMP-Nano-TRF detection kit the assay (Roche Diagnostics) was stopped by the addition of 50 μl lysis reagent (Tris, NaCl, 1.5% Triton X100, 2.5% NP40, 10% NaN3) and 50 μl detection solutions (20 μM mAb Alexa700-cAMP 1:1, and 48 μM Ruthenium-2-AHA-cAMP) and shaken for 2 h at room temperature. The time-resolved energy transfer is measured by a TRF reader (Evotec Technologies GmbH), equipped with a ND:YAG laser as excitation source. The plate is measured twice with the excitation at 355 nm and at the emission with a delay of 100 ns and a gate of 100 ns, total exposure time 10 s at 730 (bandwidth 30 nm) or 645 nm (bandwidth 75 nm), respectively. The FRET signal is calculated as follows: FRET=T730-Alexa730-P(T645-B645) with P=Ru730-B730/Ru645-B645, where T730 is the test well measured at 730 nM, T645 is the test well measured at 645 nm, B730 and B645 are the buffer controls at 730 nm and 645 nm, respectively. cAMP content is determined from the function of a standard curve spanning from 10 μM to 0.13 nM cAMP. In kind it is functional, cell-based.

In another test the target is Cannabinoid receptor 1 (Homo sapiens, UniProt P21554). The description is as §1. In kind it is functional, cell-based.
Sequence of Cannabinoid receptor 1 (P21554 whole entry): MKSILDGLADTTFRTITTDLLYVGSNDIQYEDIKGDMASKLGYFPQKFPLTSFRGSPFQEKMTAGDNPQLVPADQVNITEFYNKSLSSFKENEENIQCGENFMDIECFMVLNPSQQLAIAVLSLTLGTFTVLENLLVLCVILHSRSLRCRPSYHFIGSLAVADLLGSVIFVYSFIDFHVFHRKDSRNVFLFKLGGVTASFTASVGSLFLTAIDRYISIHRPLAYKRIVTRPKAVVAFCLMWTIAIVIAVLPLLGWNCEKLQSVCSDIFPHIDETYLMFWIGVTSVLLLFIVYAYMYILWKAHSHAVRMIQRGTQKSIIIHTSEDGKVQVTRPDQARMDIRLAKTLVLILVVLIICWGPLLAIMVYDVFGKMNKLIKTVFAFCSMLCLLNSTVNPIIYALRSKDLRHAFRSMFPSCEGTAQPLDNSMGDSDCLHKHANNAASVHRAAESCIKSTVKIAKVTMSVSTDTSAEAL

Sequence of Cannabinoid receptor 2 (P34972 whole entry): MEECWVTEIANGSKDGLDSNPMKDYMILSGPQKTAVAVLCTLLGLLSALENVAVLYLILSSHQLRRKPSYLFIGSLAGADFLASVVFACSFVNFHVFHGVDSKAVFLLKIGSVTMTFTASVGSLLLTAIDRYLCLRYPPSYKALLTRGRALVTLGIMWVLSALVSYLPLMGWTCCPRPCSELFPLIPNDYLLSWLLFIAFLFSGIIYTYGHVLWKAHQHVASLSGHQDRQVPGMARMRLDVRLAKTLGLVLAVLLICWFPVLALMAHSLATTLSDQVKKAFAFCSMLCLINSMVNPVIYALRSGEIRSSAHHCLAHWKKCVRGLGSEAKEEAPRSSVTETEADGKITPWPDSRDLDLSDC

As usually defined, the EC50 is the concentration at which the effect is half-maximal. For the molecule `CC1(C)CC(C(N)=O)N(C(=O)c2ccc(N3CC(F)(F)C3)c(OCC3CC3)n2)C1` (stereo not drawn), at Cannabinoid receptor 2, the EC50 is 6.6 nM.
For the molecule `CC(C)N(C(=O)c1ccc(N2CC(F)(F)C2)c(OCC2CC2)n1)C(C)C`, the EC50 at Cannabinoid receptor 2 was 12.6 nM; on Cannabinoid receptor 1, > 10000 nM.
